In ChEMBL document CHEMBL5726504, “Substituted cyclopentanes, tetrahydrofuranes and pyrrolidines as orexin receptor antagonists” (2017):

Target: T1, Orexin/Hypocretin receptor type 1 (Homo sapiens, UniProt O43613)
T1 sequence (O43613 whole entry): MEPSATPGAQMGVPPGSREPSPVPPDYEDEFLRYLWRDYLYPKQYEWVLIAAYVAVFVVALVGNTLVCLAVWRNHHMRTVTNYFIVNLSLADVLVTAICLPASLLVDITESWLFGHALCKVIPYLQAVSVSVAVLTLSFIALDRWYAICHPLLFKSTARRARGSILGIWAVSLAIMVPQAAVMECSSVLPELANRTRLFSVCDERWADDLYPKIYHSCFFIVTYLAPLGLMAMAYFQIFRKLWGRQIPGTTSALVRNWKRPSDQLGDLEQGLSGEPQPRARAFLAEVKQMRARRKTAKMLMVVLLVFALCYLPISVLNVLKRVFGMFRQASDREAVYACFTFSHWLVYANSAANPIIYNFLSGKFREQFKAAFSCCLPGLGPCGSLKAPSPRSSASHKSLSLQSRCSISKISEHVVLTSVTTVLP
Assay: FLIPR Assay: Orexin antagonist activity was determined by measuring changes in intracellular calcium levels using a Ca2+ sensitive fluorescent dye. The changes in fluorescent signal were monitored by Fluorescent Imaging Plate Reader (FLIPR) technology available from Molecular Devices, LLC, U.S.A. Orexin mediated increases in intracellular Ca2+ concentration were readily detected upon activation with orexin-A. Twenty-four hours prior to the assay, RBL-2H3 cells stably expressing either human orexin receptor 1 or human orexin receptor 2 were seeded in cell culture medium in black, clear-bottom 384-well plates (commercially available from Corning Inc., U.S.A.) and grown overnight at 37° C., 5% CO2. On the day of the assay, cell culture media was removed and cells were loaded with Calcium 5 Dye (commercially sold by Molecular Devices, LLC, U.S.A.) for 1 hour at 37° C., 5% CO2. Test compounds (at 10 point half log concentration response curves from 10 uM) were added to cells for 15 minutes prior to the addition of orexin-A to all wells, to achieve a final concentration that produces approximately an 80% maximal response.
Type: cell-based

IC50: 128 nM
SMILES: COc1ccc(Br)nc1C(=O)N[C@H]1CCC[C@@H]1Nc1nc2ccc(F)cc2s1
